Test results published in patent US9975930B2, “Lantibiotic derivatives and process for their preparation” (NAICONS S.r.l., priority 2012, dated 2018).

Key:
Assay in all cases: MIC by broth microdilution
[1] = test system: Staphylococcus aureus Met-S ATCC6538P; format: cell-based; conditions: code 100; CAMHB broth; 20-24 hours at 35° C.
S. aureus ATCC 25923 = format: cell-based, Staphylococcus aureus; conditions: CAMHB broth; 20-24 hours at 35° C.
S. aureus ATCC19636 = format: cell-based, Staphylococcus aureus; conditions: code 819, CAMHB broth
[2] = test system: Staphylococcus aureus Met-R; format: cell-based; conditions: code 1400; CAMHB broth; 20-24 hours at 35° C.
S. pyogenes = format: cell-based; conditions: code 49; Todd Hewitt broth; 20-24 hours at 35° C.
[3] = test system: Enterococcus faecium VanS; format: cell-based; conditions: code 568, CAMHB broth
E. faecium VanA = format: cell-based, Enterococcus faecium; conditions: code 569; CAMHB broth; 20-24 hours at 35° C.
E. faecalis VanS = format: cell-based; conditions: code 559, CAMHB broth
E. faecalis VanA = format: cell-based; conditions: code 560; CAMHB broth; 20-24 hours at 35° C.
Candida albicans = format: cell-based; conditions: code 145; RPMI-1640; 48 hours

CN[C@H](CC(C)C)C(=O)N[C@H]1C(=O)N[C@@H](CC(N)=O)C(=O)N[C@H]2C(=O)N[C@H]3C(=O)N[C@H](C(=O)N[C@H](C(=O)O)c4cc(O)cc(O)c4-c4cc3ccc4O)[C@H](O)c3ccc(c(Cl)c3)Oc3cc2cc(c3O[C@@H]2O[C@H](CO)[C@@H](O)[C@H](O)[C@H]2O[C@H]2C[C@](C)(N)[C@H](O)[C@H](C)O2)Oc2ccc(cc2Cl)[C@H]1O [VA, vancomycin]
Minimal inhibitory concentration (MIC) [1]: 0.25 | Minimal inhibitory concentration (MIC) (S. aureus ATCC 25923): 1 | Minimal inhibitory concentration (MIC) (S. aureus ATCC19636; +serum 30% (bovine serum)): 1 | Minimal inhibitory concentration (MIC) (S. aureus ATCC19636; 20-24 hours at 35° C.): 0.5 | Minimal inhibitory concentration (MIC) [2]: 0.5 | Minimal inhibitory concentration (MIC) (S. pyogenes): 0.25 | Minimal inhibitory concentration (MIC) ([3]; +serum 30% (bovine serum)): 2 | Minimal inhibitory concentration (MIC) ([3]; 20-24 hours at 35° C.): 2 | Minimal inhibitory concentration (MIC) (E. faecium VanA): >128 | Minimal inhibitory concentration (MIC) (E. faecalis VanS; +serum 30% (bovine serum)): 2 | Minimal inhibitory concentration (MIC) (E. faecalis VanS; 20-24 hours at 35° C.): 1 | Minimal inhibitory concentration (MIC) (E. faecalis VanA): 2 | Minimal inhibitory concentration (MIC) (Candida albicans): >128
